Patent US20250064057A1, “HARMFUL ALGAL BLOOM MITIGATION” (priority 2023, published 2025)

Columns and labels:
K. brevis = conditions: other studies; cited from earlier work
Karenia brevis = experiment: K. brevis cell abundance reduction (% R relative to control) in laboratory beakers/aquaria; type: cell-based; conditions: for mean % R in K. brevis cell abundance: beginning at 4 h

Compound | effect on K. brevis cells (K. brevis) | mean % R in K. brevis cell abundance (Karenia brevis; 30 mg/L curcumin) [%] | mean % R in K. brevis cell abundance (Karenia brevis; 40 mg/L curcumin) [%] | reduction in K. brevis (best mitigation results) (Karenia brevis; 20-40 mg/L curcumin, T2-T6) | minimum concentration of curcumin for a reduction in K. brevis (Karenia brevis; laboratory studies) [mg/L]
CCCCOC(=O)c1ccccc1C(=O)OCCCC [dibutyl phthalate] | inhibit cell growth, decrease cell abundance, reduce chlorophyll a, and cause oxidative stress |  |  |  | 
COc1cc(/C=C/C(=O)CC(=O)/C=C/c2ccc(O)c(OC)c2)ccc1O [curcumin, (1E,6E)-1,7-Bis (4 (hydroxy-3-methoxyphenyl)-1,6-heptadiene-3,5-dione)] |  | > 90 | > 90 | 60-100% | 5
